Test results as given in US20260070913A1, “7-AMINO-3,4-DIHYDROPYRIMIDOPYRIMIDIN-2-ONE DERIVATIVE HAVING INHIBITORY ACTIVITY FOR PROTEIN KINASES AND THERAPEUTIC PHARMACEUTICAL COMPOSITION COMPRISING SAME” (KOREA INSTITUTE OF SCIENCE AND TECHNOLOGY, priority 2020, published 2026).

Columns and labels:
Ba/F3 (N-Ras G12D) = experiment: Proliferation inhibitory activity, mt-NRAS (G12D) Ba/F3 cell line; assay type: cell-based; settings: Mus musculus, BaF3
Method: (§1) The inhibitory activities of the compounds of the present disclosure against the proliferation of the mt-NRAS (G12D) Ba/F3 and OCI-AML3 (mt-NRAS) cell lines were measured, and the […] values thereof were calculated.

GCK = target: T1, GCK (Homo sapiens, UniProt Q12851); experiment: Inhibitory activity against GCK kinase; assay type: biochemical
T1 sequence (Q12851 1-820): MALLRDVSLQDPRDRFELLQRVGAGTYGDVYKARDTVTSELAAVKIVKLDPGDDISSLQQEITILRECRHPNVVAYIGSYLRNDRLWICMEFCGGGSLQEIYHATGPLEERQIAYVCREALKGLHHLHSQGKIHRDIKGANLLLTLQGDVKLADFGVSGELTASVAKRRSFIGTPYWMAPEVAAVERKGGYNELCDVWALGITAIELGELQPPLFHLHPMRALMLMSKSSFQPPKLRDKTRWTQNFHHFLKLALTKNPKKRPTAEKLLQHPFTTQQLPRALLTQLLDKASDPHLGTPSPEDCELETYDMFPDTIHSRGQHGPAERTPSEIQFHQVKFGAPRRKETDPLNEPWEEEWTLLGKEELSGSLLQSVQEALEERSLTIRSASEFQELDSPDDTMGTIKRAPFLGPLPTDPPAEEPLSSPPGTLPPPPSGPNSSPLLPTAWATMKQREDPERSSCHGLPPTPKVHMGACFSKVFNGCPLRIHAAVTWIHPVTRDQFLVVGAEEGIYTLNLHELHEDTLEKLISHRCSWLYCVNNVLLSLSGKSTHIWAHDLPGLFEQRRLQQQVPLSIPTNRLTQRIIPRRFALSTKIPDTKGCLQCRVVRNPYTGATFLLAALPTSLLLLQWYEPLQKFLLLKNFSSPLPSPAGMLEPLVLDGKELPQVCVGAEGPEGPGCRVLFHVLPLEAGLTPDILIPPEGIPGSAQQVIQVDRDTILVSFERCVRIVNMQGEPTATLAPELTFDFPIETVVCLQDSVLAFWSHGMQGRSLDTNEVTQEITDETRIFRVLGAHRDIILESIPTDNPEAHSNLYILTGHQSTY
Method: (§2) The inhibitory activities of the compounds of the present disclosure against two kinases, GCK and ACK1, were measured, and the IC50 values thereof were calculated.

OCI-AML3 (N-Ras Q61L) = experiment: Proliferation inhibitory activity, OCI-AML3 cell line; assay type: cell-based; settings: Homo sapiens, OCI-AML-3
Method: as §1
Referring to the results in Table 2, it can be seen that the compound of the present disclosure has inhibitory activity against the proliferation of the human acute myeloid leukemia cell line (OCI-AML3) having the NRAS mutant gene, and the effect thereof is remarkable. Therefore, it can be seen that the compound of the present disclosure is particularly effective as a therapeutic agent for acute myeloid leukemia (AML).

ACK1 = ACK1 (Homo sapiens, UniProt Q07912); experiment: Inhibitory activity against ACK1 kinase; assay type: biochemical
Sequence of ACK1 (Q07912 whole entry): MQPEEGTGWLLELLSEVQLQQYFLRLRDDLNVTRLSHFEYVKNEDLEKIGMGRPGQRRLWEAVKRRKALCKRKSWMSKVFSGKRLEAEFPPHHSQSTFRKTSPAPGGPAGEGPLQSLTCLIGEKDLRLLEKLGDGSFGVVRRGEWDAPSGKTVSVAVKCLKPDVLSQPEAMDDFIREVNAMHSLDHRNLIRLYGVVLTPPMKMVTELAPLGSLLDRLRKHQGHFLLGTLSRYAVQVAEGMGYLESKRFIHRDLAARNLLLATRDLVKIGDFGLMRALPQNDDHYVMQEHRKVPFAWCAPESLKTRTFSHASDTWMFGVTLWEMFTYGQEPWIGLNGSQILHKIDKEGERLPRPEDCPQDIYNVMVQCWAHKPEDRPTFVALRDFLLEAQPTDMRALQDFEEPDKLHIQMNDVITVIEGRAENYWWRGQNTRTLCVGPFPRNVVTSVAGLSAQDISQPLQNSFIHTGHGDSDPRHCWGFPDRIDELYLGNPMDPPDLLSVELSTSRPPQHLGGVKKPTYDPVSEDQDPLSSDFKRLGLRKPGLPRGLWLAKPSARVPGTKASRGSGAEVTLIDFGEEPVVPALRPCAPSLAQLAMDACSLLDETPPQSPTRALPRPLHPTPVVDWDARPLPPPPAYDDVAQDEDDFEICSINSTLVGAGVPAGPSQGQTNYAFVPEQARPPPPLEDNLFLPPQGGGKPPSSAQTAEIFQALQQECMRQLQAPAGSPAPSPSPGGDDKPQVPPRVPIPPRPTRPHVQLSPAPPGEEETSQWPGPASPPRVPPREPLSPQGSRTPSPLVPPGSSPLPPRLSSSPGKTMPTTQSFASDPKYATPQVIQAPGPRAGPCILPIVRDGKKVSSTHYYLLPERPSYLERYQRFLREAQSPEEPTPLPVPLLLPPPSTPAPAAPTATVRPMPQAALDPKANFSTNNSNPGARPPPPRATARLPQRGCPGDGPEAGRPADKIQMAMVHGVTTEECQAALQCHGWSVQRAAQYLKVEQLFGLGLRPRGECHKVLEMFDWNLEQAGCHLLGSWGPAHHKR
Method: as §2

Row | SMILES | GI50 (Ba/F3 (N-Ras G12D)) [µM] | IC50 (GCK) [nM] | GI50 (OCI-AML3 (N-Ras Q61L)) [µM] | IC50 (ACK1) [nM]
1 | CCN1CCC(n2cc(Nc3ncc4c(n3)N(C)C(=O)N(c3cc(-c5ncc(-c6ccccc6OC(F)(F)F)[nH]5)ccc3C)C4)cn2)CC1 [Compound No. 10, 7-((1-(1-ethylpiperidin-4-yl)-1H-pyrazol-4-yl)amino)-1-methyl-3-(2-methyl-5-(5-(2-(trifluoromethoxy)phenyl)-1H-imidazol-2-yl)phenyl)-3,4-dihydropyrimido[4,5-d]pyrimidin-2(1H)-one] | < 0.5 | 100 to 1000 | < 0.5 | < 100
2 | Cc1ccc(Nc2ncc3c(n2)N(C)C(=O)N(c2cc(-c4ncc(-c5cccc(C(F)(F)F)c5)[nH]4)ccc2C)C3)cn1 [Compound No. 13, 1-methyl-3-(2-methyl-5-(5-(3-(trifluoromethyl)phenyl)-1H-imidazol-2-yl)phenyl)-7-((6-methylpyridin-3-yl)amino)-3,4-dihydropyrimido[4,5-d]pyrimidin-2(1H)-one] | 3 to 5 | > 10000 | < 0.5 | 1000 to 10000
3 | Cc1ccc(-c2ncc(-c3cccc(F)c3F)[nH]2)cc1N1Cc2cnc(NC3CC3)nc2N(C)C1=O [Compound No. 11, 7-(cyclopropylamine)-3-(5-(5-(2,3-difluorophenyl)-1H-imidazol-2-yl)-2-methylphenyl)-1-methyl-3,4-dihydropyrimido[4,5-d]pyrimidin-2(1H)-one] | 0.5 to 3 | > 10000 | 0.5 to 3 | 1000 to 10000
4 | COc1ccccc1-c1cnc(-c2ccc(C)c(N3Cc4cnc(Nc5cnn(C6CCN(C(C)=O)CC6)c5)nc4N(C)C3=O)c2)[nH]1 [Compound No. 7, 7-((1-(1-acetylpiperidin-4-yl)-1H-pyrazol-4-yl)amino)-3-(5-(5-(2-methoxyphenyl)-1H-imidazol-2-yl)-2-methylphenyl)-1-methyl-3,4-dihydropyrimido[4,5-d]pyrimidin-2(1H)-one] | < 0.5 | 100 to 1000 | < 0.5 | < 100
5 | Cc1ccc(-c2ncc(-c3ccccc3OC(F)(F)F)[nH]2)cc1N1Cc2cnc(Nc3ccc(N4CCOCC4)cc3)nc2N(C)C1=O [Compound No. 18, 1-methyl-3-(2-methyl-5-(5-(2-(trifluoromethoxy)phenyl)-1H-imidazol-2-yl)phenyl)-7-((4-morpholinophenyl)amino)-3,4-dihydropyrimido[4,5-d]pyrimidin-2(1H)-one] | 0.5 to 3 | 1000 to 10000 | > 5 | < 100
6 | COc1ccccc1-c1cnc(-c2ccc(C)c(N3Cc4cnc(Nc5ccc(N6CCN(C(C)=O)CC6)nc5)nc4N(C)C3=O)c2)[nH]1 [Compound No. 6, 7-((6-(4-acetylpiperazin-1-yl)pyridin-3-yl)amino)-3-(5-(5-(2-methoxyphenyl)-1H-imidazol-2-yl)-2-methylphenyl)-1-methyl-3,4-dihydropyrimido[4,5-d]pyrimidin-2(1H)-one] | < 0.5 | 1000 to 10000 | < 0.5 | < 100
7 | CCN1CCC(c2ccc(Nc3ncc4c(n3)N(C)C(=O)N(c3cc(-c5ncc(-c6ccccc6OC)[nH]5)ccc3C)C4)cn2)CC1 [Compound No. 5, 7-((6-(1-ethylpiperidin-4-yl)pyridin-3-yl)amino)-3-(5-(5-(2-methoxyphenyl)-1H-imidazole-2-yl)-2-methylphenyl)-1-methyl-3,4-dihydropyrimido[4,5-d]pyrimidin-2(1H)-one] | < 0.5 | 100 to 1000 | < 0.5 | < 100
8 | CC(=O)N1CCN(c2ccc(Nc3ncc4c(n3)N(C)C(=O)N(c3cc(-c5ncc(-c6ccccc6OC(F)(F)F)[nH]5)ccc3C)C4)cn2)CC1 [Compound No. 14, 7-((6-(4-acetylpiperazin-1-yl)pyridin-3-yl)amino)-1-methyl-3-(2-methyl-5-(5-(2-(trifluoromethoxy)phenyl)-1H-imidazol-2-yl)phenyl)-3,4-dihydropyrimido[4,5-d]pyrimidin-2(1H)-one] | 0.5 to 3 | 100 to 1000 | 0.5 to 3 | 100 to 1000
9 | COc1ccccc1-c1cnc(-c2ccc(C)c(N3Cc4cnc(Nc5cnn(C)c5)nc4N(C)C3=O)c2)[nH]1 [Compound No. 1, 3-(5-(5-(2-methoxyphenyl)-1H-imidazol-2-yl)-2-methylphenyl)-1-methyl-7-((1-methyl-1H-pyrazol-4-yl)amino)-3,4-dihydropyrimido[4,5-d]pyrimidin-2(1H)-one] | < 0.5 | 100 to 1000 | < 0.5 | < 100
10 | COc1ccccc1-c1cnc(-c2ccc(C)c(N3Cc4cnc(Nc5ccc(C)nc5C)nc4N(C)C3=O)c2)[nH]1 [Compound No. 2, 7-((2,6-dimethylpyridin-3-yl)amino)-3-(5-(5-(2-methoxyphenyl)-1H-imidazol-2-yl)-2-methylphenyl)-1-methyl-3,4-dihydropyrimido[4,5-d]pyrimidin-2(1H)-one] | 0.5 to 3 | – | 0.5 to 3 | –
11 | COc1ccccc1-c1cnc(-c2ccc(C)c(N3Cc4cnc(Nc5ccc(C)nc5)nc4N(C)C3=O)c2)[nH]1 [Compound No. 3, 3-(5-(5-(2-methoxyphenyl)-1H-imidazol-2-yl)-2-methylphenyl)-1-methyl-7-((6-methylpyridin-3-yl)amino)-3,4-dihydropyrimido[4,5-d]pyrimidin-2(1H)-one] | < 0.5 | 100 to 1000 | < 0.5 | < 100
12 | CCN1CCC(c2ccc(Nc3ncc4c(n3)N(C)C(=O)N(c3cc(-c5ncc(-c6ccccc6OC(F)(F)F)[nH]5)ccc3C)C4)cn2)CC1 [Compound No. 15, 7-((6-(1-ethylpiperidin-4-yl)pyridin-3-yl)amino)-1-methyl-3-(2-methyl-5-(5-(2-(trifluoromethoxy)phenyl)-1H-imidazol-2-yl)phenyl)-3,4-dihydropyrimido[4,5-d]pyrimidin-2(1H)-one] | 3 to 5 | – | > 5 | –
13 | Cc1ccc(Nc2ncc3c(n2)N(C)C(=O)N(c2cc(-c4ncc(-c5ccccc5OC(F)(F)F)[nH]4)ccc2C)C3)cn1 [Compound No. 9, 1-methyl-3-(2-methyl-5-(5-(2-(trifluoromethoxy)phenyl)-1H-imidazol-2-yl)phenyl)-7-((6-methylpyridin-3-yl)amino)-3,4-dihydropyrimido[4,5-d]pyrimidin-2(1H)-one] | < 0.5 | > 10000 | 0.5 to 3 | 100 to 1000
14 | Cc1ccc(Nc2ncc3c(n2)N(C)C(=O)N(c2cc(-c4ncc(-c5ccccc5OC(F)(F)F)[nH]4)ccc2C)C3)c(C)n1 [Compound No. 8, 7-((2,6-dimethylpyridin-3-yl)amino)-1-methyl-3-(2-methyl-5-(5-(2-(trifluoromethoxy)phenyl)-1H-imidazole-2-yl)phenyl)-3,4-dihydropyrimido[4,5-d]pyrimidin-2(1H)-one] | 0.5 to 3 | – | 3 to 5 | –
15 | CCN1CCN(c2ccc(Nc3ncc4c(n3)N(C)C(=O)N(c3cc(-c5ncc(-c6ccccc6OC(F)(F)F)[nH]5)ccc3C)C4)cn2)CC1 [Compound No. 16, 7-((6-(4-ethylpiperazin-1-yl)pyridin-3-yl)amino)-1-methyl-3-(2-methyl-5-(5-(2-(trifluoromethoxy)phenyl)-1H-imidazol-2-yl)phenyl)-3,4-dihydropyrimido[4,5-d]pyrimidin-2(1H)-one] | > 5 | – | > 5 | –
16 | CC(=O)N1CCC(n2cc(Nc3ncc4c(n3)N(C)C(=O)N(c3cc(-c5ncc(-c6ccccc6OC(F)(F)F)[nH]5)ccc3C)C4)cn2)CC1 [Compound No. 17, 7-((1-(1-acetylpiperidin-4-yl)-1H-pyrazol-4-yl)amino)-1-methyl-3-(2-methyl-5-(5-(2-(trifluoromethoxy)phenyl)-1H-imidazol-2-yl)phenyl)-3,4-dihydropyrimido[4,5-d]pyrimidin-2(1H)-one] | > 5 | – | > 5 | –
17 | Cc1ccc(Nc2ncc3c(n2)N(C)C(=O)N(c2cc(-c4ncc(-c5cccc(F)c5F)[nH]4)ccc2C)C3)cn1 [Compound No. 12] | 0.5 to 3 | > 10000 | < 0.5 | 100 to 1000
